Row | SMILES | melting point
1 | CCCc1nn(C)c2c(=O)n(CCOc3ccc(CC(OCC)C(=O)O)cc3)c(CC)nc12 (single isomer, unassigned; (+)) | 144 to 145 °C
2 | Cc1ccc(C)c(C2CC(=O)C(C(=O)c3ccccc3)=C(O)C2)c1 (stereo not given) | 182 to 185 °C
3 | CCCCCCCCCc1cc(-c2ccccc2)c(OCC(=O)O)c(-c2ccccc2)c1 | 63 to 65 °C
4 | NC(=O)NCc1ccc(CNC(=O)[C@@H](CCCNC(N)=N[N+](=O)[O-])NC(=O)OCc2ccc3ccccc3c2)cc1 | 155 to 160 °C
5 | N#CC=C1CCN(c2ccc(N3C[C@@H](CN=[N+]=[N-])OC3=O)cc2F)CC1 | 112 to 114 °C
6 | COC(=O)NN=Cc1ccccc1N | 149 to 150 °C
7 | CC(C)(C)OC(=O)NCc1cccc2c1CN(C1CCC(=O)NC1=O)C2=O (stereo not given) | 239 to 241 °C
8 | CCOC(=O)OCCn1nc(-c2cc(C(C)(C)C)c(O)c(C(C)(C)C)c2)c2ccc(C)nc21 | 145 to 146 °C
9 | O=c1[nH]c(C2CCCN(Cc3ccccc3)C2)cc2ccccc12 (stereo not given) | 176 to 178 °C
10 | Cc1ccc(N2C(=O)C(O)=C(C(=O)c3ccc(-c4ccccc4)cc3)C2c2ccc(OC(F)(F)F)cc2)nn1 (stereo not given) | 226 to 232 °C
11 | CC(C)(C)C(O)(COc1ccccc1)c1cncnc1 (stereo not given) | 127 to 129 °C
12 | O=C(O)c1cn(C(c2ccccc2)(c2ccccc2)c2ccccc2)c(I)n1 | 203 to 205 °C
13 | Cn1nnnc1CC(=O)c1ccc(Br)cc1N | 159 to 160 °C
14 | Cc1ccc(-c2ccc(S(C)(=O)=O)cc2)n1CC(C)(C)S | 124 to 126 °C
15 | O=C(N[C@@H](CCO)C(=O)O)OCc1ccccc1 | 125 to 128 °C
16 | O=C(Nc1ccc(-n2nc(C(F)(F)F)cc2C(F)(F)F)cc1)c1ccc([N+](=O)[O-])cc1 | 185 to 188 °C
17 | Nc1ccc(Nc2c(CC3CC4C=CC3C4)cc(C(=O)O)cc2S(N)(=O)=O)cc1 (stereo not given) | 245 °C
18 | O=c1nc(-c2cnccn2)sc2ccccc12 | 241 to 242 °C
19 | CC(C)(C)S(=O)(=O)C(=[N+]=[N-])S(=O)(=O)C(C)(C)C | 121 to 122 °C
20 | CCCNS(=O)(=O)c1cc2cc(P(=O)(OCC)OCC)c(=O)[nH]c2cc1Cl | > 300 °C
21 | N#Cc1cc(-c2nccs2)nn1-c1ccc(NC(=O)c2ccncc2F)cc1 | 210 to 211 °C
22 | CSc1ccc([N+](=O)[O-])c(C#N)c1 | 112 to 113 °C
23 | COc1ccc2[nH]nc(N3CCN(CCCc4c(C)[nH]c5ccccc45)CC3)c2c1 | 145 to 147 °C
24 | COc1ccc(C(OCC2OC(n3cnc4c(=O)[nH]c(NC(=O)Cc5ccc(Cl)c(Cl)c5)nc43)CC2O)(c2ccccc2)c2ccc(OC)cc2)cc1 (stereo not given) | 150 to 155 °C
25 | CC(C)n1nc(-c2sc(NCCN3CCCCC3)nc2-c2ccccc2)ccc1=O | 165 to 166 °C

Row | SMILES | melting point
26 | Cc1cc(Cl)cc(C(=O)NC(C)(C#N)C2CC2)c1NC(=O)c1cc(C(F)(F)F)nn1-c1ncccc1Cl (stereo not given) | 226 to 228 °C
27 | Cc1cc(C(C)N(O)C(N)=O)ccc1OC(C)c1ccccc1 (stereo not given) | 133 to 135 °C
28 | CC1(C)C=C(N2CCCS2(=O)=O)c2cc(S(C)(=O)=O)ccc2O1 | 226 to 227 °C
29 | O=C(O)/C=C/c1ccc(C(c2cc(F)ccc2F)S(=O)(=O)c2ccc(Cl)cc2)nc1 (stereo not given) | 236 to 238 °C
30 | O=Cc1ccc(OCc2cccc(Cl)c2)cc1 | 51 to 54 °C
31 | COC(Cc1c(Br)cc(Br)c(N)c1Br)C(=O)O (stereo not given) | 173 to 175 °C
32 | CCC(Oc1cc(C)cc(C)c1)C(=O)NCc1ccccc1 (stereo not given) | 93 to 94 °C
33 | OC(Cn1cncn1)(Cn1ncnc1S)c1ccc(F)cc1F (stereo not given) | 187 °C
34 | Cc1cc(=O)c(C(=O)O)c(C)o1 | 98 °C
35 | Nc1nc(NC2CCCCC2)nc2c1ncn2C1CCCCC1 | 109 to 117 °C
36 | CC(C)(Cc1c2c(nn1CCO)c(N)nc1ccccc12)NS(C)(=O)=O | 203 to 204 °C
37 | Oc1c(Cl)cc(Cl)c2cc(Cl)cnc12 | 144 to 147 °C
38 | COC(=O)CCc1cnoc1-c1ccc([N+](=O)[O-])cc1 | 118 to 119 °C
39 | CNC(=O)c1ccc(N2CCN(c3ccncc3)CC2)cc1 | 239 to 242 °C
40 | COCCOC(=O)c1c(S(C)(=O)=O)ccc(C(=O)O)c1C | 90 to 93 °C
41 | O=C(O)c1ccc(NC(=O)C(CC2CCCC2)c2cccc(Cl)c2)nc1 (stereo not given) | 251 to 255 °C
42 | C=C(F)Cc1ccc(OC)cc1OCc1ccccc1 | 77 to 78 °C
43 | CCC(CC)(CC(=O)Nc1cccc(OCc2ccc3ccc(F)cc3n2)c1)C(=O)O | 92 to 93 °C
44 | CC(=O)NC[C@H]1CN(c2ccc(N3CCN(c4ccc(C=O)o4)CC3)c(F)c2)C(=O)O1 | 176 °C
45 | CSC(=C[N+](=O)[O-])NC(C)C(C)(C)C (stereo not given) | 69 °C
46 | CCOC(=O)c1cc(NC(C)=O)ccc1OC(C)=O | 91.5 to 92.5 °C
47 | COc1ccc(C2Sc3c(ccc4ccccc34)N(CCCN(C)C)C(=O)C2O)cc1 (stereo not given) | 123 to 124 °C
48 | CC(C)(C)Sc1c(CC(C)(C)C(=O)O)n(Cc2ccc(Cl)cc2)c2ccc(OCc3ccc(Cl)s3)cc12 | 182 to 184 °C
49 | O=C(c1ccc(C2=CCCc3ccccc32)cc1Cl)N1Cc2cccn2Cc2ccccc21 | 174 to 176 °C
50 | COc1ccc(C=CC2=NN=C(C)Cc3cc(OC)c(OC)cc32)c(OC)c1 | 148 to 150 °C
